Measurements from patent publication US9353090B2, “Heterocyclic carboxylic acids as activators of soluble guanylate cyclase” (Boehringer Ingelheim International GmbH, priority 2014, dated 2016).
Converted amounts (≈) assume the structure as drawn.

Experiments:
physchem = conditions: kinetic from dmso stock
[1] = target: human soluble guanylate cyclase alpha 1 and beta 1 subunits (sGC) (Homo sapiens (Human), UniProt Q02108+Q02153); test: sGC cellular activator assay (cGMP, HTRF), in the presence and absence of 50% human serum; format: cell-based; conditions: CHO cells stably expressing human sGC alpha 1/beta 1, preincubated with 40 microM ODQ; cGMP by HTRF; Table 2 does not state whether with or without 50% human serum
Procedure, shortened: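 First, CHO-sGC (human α1β1) cells get 1 h ODQ at 40 microM with IBMX and 0.1% BSA. Finally, cGMP is quantified by HTRF and EC50 computed.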

[2] = Human liver microsome (HLM) metabolic stability assay; format: in vitro ADME; conditions: human liver microsomes
Procedure, shortened: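 Remaining parent measured by LC/MS/MS (ESI, MRM) at 5, 15, 30 and 60 min relative to 0 min. Incubation: 1 uM compound, HLMs, NADPH-started, 37° C., 60 min total, single replicate. Slope of ln(% remaining) gives t1/2 = 0.693/slope, then CLint, CLh and % Qh.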

[3] = pH 2.2, aqueous buffer, Solubility (pH 2.2)
[4] = pH 4.5, aqueous buffer, Solubility (pH 4.5)
[5] = pH 6.8, aqueous buffer, Solubility (pH 6.8)

human soluble guanylate cyclase alpha 1 and beta 1 subunits (sGC), sequence (Q02108 whole entry partner): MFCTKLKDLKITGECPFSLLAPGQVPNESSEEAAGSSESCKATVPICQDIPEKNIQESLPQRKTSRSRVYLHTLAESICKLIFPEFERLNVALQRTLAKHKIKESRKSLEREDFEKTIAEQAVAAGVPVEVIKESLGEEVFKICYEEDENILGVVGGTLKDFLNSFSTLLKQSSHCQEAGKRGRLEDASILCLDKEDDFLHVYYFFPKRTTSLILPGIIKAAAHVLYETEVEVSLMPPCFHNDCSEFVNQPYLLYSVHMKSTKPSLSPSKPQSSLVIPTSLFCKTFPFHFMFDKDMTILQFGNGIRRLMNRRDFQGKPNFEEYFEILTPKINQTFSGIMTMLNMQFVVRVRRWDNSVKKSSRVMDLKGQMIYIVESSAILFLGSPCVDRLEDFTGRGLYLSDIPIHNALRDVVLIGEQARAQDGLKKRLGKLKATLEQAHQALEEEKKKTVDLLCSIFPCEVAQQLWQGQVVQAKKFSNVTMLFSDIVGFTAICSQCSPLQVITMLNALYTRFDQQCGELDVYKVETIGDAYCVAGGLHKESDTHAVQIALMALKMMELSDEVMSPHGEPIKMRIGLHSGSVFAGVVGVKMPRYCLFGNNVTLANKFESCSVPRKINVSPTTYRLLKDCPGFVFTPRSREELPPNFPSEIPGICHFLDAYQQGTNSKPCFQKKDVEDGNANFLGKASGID
human soluble guanylate cyclase alpha 1 and beta 1 subunits (sGC), sequence (Q02153 whole entry): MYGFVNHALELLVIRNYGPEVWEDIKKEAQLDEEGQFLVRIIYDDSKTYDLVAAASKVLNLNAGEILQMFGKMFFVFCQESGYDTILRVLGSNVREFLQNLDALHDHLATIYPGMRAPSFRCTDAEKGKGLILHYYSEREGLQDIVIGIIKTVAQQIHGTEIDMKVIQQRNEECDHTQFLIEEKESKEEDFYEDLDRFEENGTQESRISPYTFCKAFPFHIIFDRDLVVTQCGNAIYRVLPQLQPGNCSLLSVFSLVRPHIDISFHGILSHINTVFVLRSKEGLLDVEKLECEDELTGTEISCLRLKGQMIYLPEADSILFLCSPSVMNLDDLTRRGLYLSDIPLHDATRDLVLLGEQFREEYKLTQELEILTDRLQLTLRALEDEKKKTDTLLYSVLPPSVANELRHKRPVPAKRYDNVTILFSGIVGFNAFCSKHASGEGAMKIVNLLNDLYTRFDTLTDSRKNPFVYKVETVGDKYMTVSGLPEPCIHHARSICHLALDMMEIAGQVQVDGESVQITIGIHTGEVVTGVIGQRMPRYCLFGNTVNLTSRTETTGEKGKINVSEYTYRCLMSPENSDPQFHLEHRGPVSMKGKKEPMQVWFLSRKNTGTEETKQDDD

SMILES | solubility at 24 h (physchem; [3]) [µg/mL] | solubility at 24 h (physchem; [4]) [µg/mL] | solubility at 24 h (physchem; [5]) [µg/mL] | EC50 [1] [nM] | Metabolic stability (Qh %), % hepatic blood flow [2] [%]
CO[C@@H]1CN(c2cccc(-c3cccc(Cl)c3OCc3cc(C)c4c(c3)CCN(C3CCOCC3)C4)n2)CC[C@@H]1C(=O)O [Compound 255] | 170 (≈ 280 µM) | 69.5 (≈ 115 µM) | 37.7 (≈ 62.2 µM) | 7 | 25
CCO[C@H]1CN(c2cccc(-c3cccc(Cl)c3OCc3cc(C)c4c(c3)CCN(C3CCOCC3)C4)n2)CC[C@H]1C(=O)O [Compound 256] | 151 (≈ 243 µM) | 82 (≈ 132 µM) | 57.1 (≈ 92.1 µM) | 3 | 89
CCO[C@H]1CN(c2cccc(-c3cccc(Cl)c3OCc3cc4c(c(OC)c3)CN(C3CCOCC3)CC4)n2)CC[C@H]1C(=O)O [Compound 257] | 164 (≈ 258 µM) | 88.2 (≈ 139 µM) | 59 (≈ 92.7 µM) | 3 | 85
CCO[C@@H]1CN(c2cccc(-c3cccc(Cl)c3OCc3cc(C)c4c(c3)CCN(C3CCOCC3)C4)n2)CC[C@@H]1C(=O)O [Compound 259] | 150 (≈ 241 µM) | 86.8 (≈ 140 µM) | 58 (≈ 93.5 µM) | 65 | 44
CCO[C@@H]1CN(c2cccc(-c3cccc(Cl)c3OCc3cc4c(c(OC)c3)CN(C3CCOCC3)CC4)n2)CC[C@@H]1C(=O)O [Compound 260] | 148 (≈ 233 µM) | 83.9 (≈ 132 µM) | 58.3 (≈ 91.6 µM) | 56 | 40
CCO[C@H]1CN(c2nc(-c3cccc(Cl)c3OCc3cc4c(c(OC)c3)CN(C3CCOCC3)CC4)cs2)CC[C@H]1C(=O)O [Compound 261] | 116 (≈ 180 µM) | 40.7 (≈ 63.4 µM) | 38.9 (≈ 60.6 µM) | 3 | 29
COC[C@H]1N(c2cccc(-c3cccc(C)c3OCc3ccc4c(c3F)CCN(C3CCOCC3)CC4)n2)C[C@@H]2C[C@@]21C(=O)O [Compound 262] | 133 (≈ 215 µM) | 94.9 (≈ 154 µM) | 67.4 (≈ 109 µM) | 3 | 25
COC[C@H]1N(c2cccc(-c3cccc(C)c3OCc3ccc4c(c3F)CCN(C3COC3)CC4)n2)C[C@@H]2C[C@@]21C(=O)O [Compound 263] | 122 (≈ 207 µM) | 82.8 (≈ 141 µM) | 54.4 (≈ 92.6 µM) | 7 | <24
COc1cc(COc2c(Cl)cccc2-c2csc(N3CC[C@@H](C(=O)O)[C@@H](OC)C3)n2)cc2c1CN(C1CCOCC1)CC2 [Compound 264] | 135 (≈ 215 µM) | 56.6 (≈ 90.1 µM) | 51.8 (≈ 82.5 µM) | 4 | <24
COc1cc(COc2c(Cl)cccc2-c2csc(N3CC[C@H](C(=O)O)[C@H](OC)C3)n2)cc2c1CN(C1CCOCC1)CC2 [Compound 265] | 117 (≈ 187 µM) | 53.7 (≈ 85.5 µM) | 46.7 (≈ 74.3 µM) | 15 | <24
CO[C@@H]1CN(c2nc(-c3cccc(C)c3OCc3ccc4c(c3F)CCN(C3CCOCC3)CC4)cs2)CC[C@@H]1C(=O)O [Compound 266] | 109 (≈ 179 µM) | 63.1 (≈ 103 µM) | 59.4 (≈ 97.4 µM) | 5 | <24
CO[C@@H]1CN(c2nc(-c3cccc(C)c3OCc3ccc4c(c3F)CCN(C3COC3)CC4)cs2)CC[C@@H]1C(=O)O [Compound 267] | 116 (≈ 199 µM) | 60.3 (≈ 104 µM) | 59.6 (≈ 102 µM) | 7 | <24
COC[C@H]1N(c2cccc(-c3cccc(C)c3OCc3ccc4c(c3F)CCN(C3CCOC3)CC4)n2)C[C@@H]2C[C@@]21C(=O)O (some centres unmarked) [Compound 268] | 119 (≈ 198 µM) | 88.6 (≈ 147 µM) | 57.8 (≈ 96.1 µM) | 4 | 40
CCO[C@@H]1CN(c2nc(-c3cc(C)ccc3OCc3cc(C)c4c(c3F)CCN(C3CCOCC3)C4)cs2)CC[C@@H]1C(=O)O [Compound 269] | 115 (≈ 184 µM) | 35.1 (≈ 56.3 µM) | 3 (≈ 4.81 µM) | 6 | <24
CCO[C@@H]1CN(c2nc(-c3cccc(C)c3OCc3cc(OC)c4c(c3F)CCN(C3CCOCC3)C4)cs2)CC[C@@H]1C(=O)O [Compound 270] | 114 (≈ 179 µM) | 73.4 (≈ 115 µM) | 64 (≈ 100 µM) | 2 | 38
COc1cc(COc2ccc(C)cc2-c2csc(N3CC[C@@H](C(=O)O)[C@@H](OC)C3)n2)c(F)c2c1CN(C1CCOCC1)CC2 [Compound 271] | 134 (≈ 214 µM) | 66.6 (≈ 106 µM) | 32.8 (≈ 52.4 µM) | 5 | <24
